From patent US8106004B2, “Methods of inhibiting tumor cell aggressiveness using the microenvironment of human embryonic stem cells” (Children's Memorial Hospital, priority 2006, dated 2012)

System: C8161 human cutaneous melanoma cells
Assay: In vivo tumor formation, orthotopic mouse model, C8161 melanoma cells
Settings: for tumorigenicity / tumor formation: 250,000 C8161 cells treated with Morpholino before subcutaneous injection, n=5, p<0.05
Description: A microenvironment of human embryonic stem cells (H9 CMTX) was prepared as described above. C8161 human cutaneous melanoma cells were exposed to the H9 CMTX or Matrigel for 3 to 4 days prior to transplantation in a mouse model. Nude immunocompromised mice received an injection of the C8161 cells subcutaneously into the midscapular region (to mimic spontaneous metastatic dissemination found in human cancers). The animals were injected using a 25 or 27-gauge needle with 2.5×10^5 tumor cells/mouse in 0.05 ml RPMI media.
As a corollary to these findings, an orthotopic mouse model was used to examine the effect of Nodal inhibition on melanoma tumor formation. For the experimental tumourigenesis model, 5 week old nude mice (Harlan, Madison, Wis.) were injected subcutaneously with 250,000 C8161 cells, treated with control or anti-Nodal Morpholinos, in 50 μL of complete RPMI. Tumor measurements were taken on days 3, 7, 14 and 17 post-injection, and mice were sacrificed on day 17. For the orthotopic mouse tumor formation studies, statistical significance was determined using the Kruskal-Wallis One Way Analysis of Variance on Ranks, followed by Dunn's method.
The derivation and phenotypic characteristics of the human melanoma cell lines have been previously described. Seftor, et. al., 2002, Clin. Experim. Metastas. 19:233-246; Seftor, et. al., 2005 Cancer Res. 65:10164-10169. The melanoma cell lines are maintained in RPMI 1640 medium (Invitrogen) supplemented with 10% fetal bovine serum (FBS, Gemini Bioproducts) and 0.1% gentamycin sulfate with the exception of C81-61 cells which are maintained in Ham's FIO medium supplemented with 15% FBS, 1X Mito+ (BD Bioscience) and gentamycin sulfate. Normal human melanocytes are purchased (Cascade Biologics) or isolated from neonatal foreskins. Seftor, et. al., 2005. A single cell suspension is prepared, added to plastic flasks for the adherence of melanocytes and the cells propagated in Medium 254 with Human Melanocyte Growth Supplement (Cascade Biologics) including, 100 units/ml penicillin, 100 μg/ml streptomycin, and 250 ng/mL amphotericin B. The human embryonic stem cell lines are cultured as previously described. Thomson, et. al., 1998, Science 282:1145-1147. Briefly, cells are grown in 6-well plates precoated with 0.1% porcine gelatin and containing 1.9×10^5 irradiated mouse embryonic fibroblasts (strain CF-1; ATCC) per well. The cells are maintained in medium containing DMEM/F12 (1:1), 20% knock-out serum replacement, non-essential minimal amino acids, L-glutamine (Invitrogen), […], and 4 ng/ml FGF-2 (R&D Systems), and are split with collagenase (1 mg/ml) before the colonies begin to overlap. The cultures are determined to be free of mycoplasma contamination using a PCR-based assay (Roche). […]

[1] = 250,000 C8161 cells treated with anti-Nodal Morpholino before injection

MO^Nodal: FITC-conjugated anti-sense Morpholino to Nodal, 5′-AAGCAGCACCTCCAGCCCTTATATC-3′ [SEQ ID NO: 20] (all phosphorodiamidate morpholino (PMO); FITC conjugated, position not given here)
tumorigenicity / tumor formation (listed as MO Nodal): reduction in tumor formation | tumorigenicity / tumor formation (listed as MONodal): significant reduction | diminution of tumor incidence [1]: 30% | tumor growth [1]: decrease
